Laboratory results reported in US12673946B2, “Pyrimidin-4(3H)-one derivatives as TRPV4 antagonists” (RaQualia Pharma Inc., priority 2020, dated 2026).

Molecular target: T1, human TRPV4 (Homo sapiens, UniProt Q9HBA0)
T1 construct: host or cells: tetracycline-inducible Flp-In T-REx 293 cells
Assay: Hypotonicity-induced Ca2+ influx (Fluo-4, FDSS)
Assay type: cell-based
Method in brief: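 Flp-In T-REx 293 cells with tetracycline-induced human TRPV4, loaded with Fluo-4 for 60 min at 25 °C. Compound added 5 min before hypotonic mannitol/CaCl2 solution. Ca2+ signal recorded for 4.5 min on FDSS.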

[1] = Flp-In T-REx 293 cells expressing human TRPV4, examples listed under heading 'Human IC50<50 nM'
[2] = Flp-In T-REx 293 cells stably expressing human TRPV4, compounds listed by potency bin (<10 nM Tables 96-1/96-2, <3 nM Table 97)

T1 sequence (Q9HBA0 whole entry): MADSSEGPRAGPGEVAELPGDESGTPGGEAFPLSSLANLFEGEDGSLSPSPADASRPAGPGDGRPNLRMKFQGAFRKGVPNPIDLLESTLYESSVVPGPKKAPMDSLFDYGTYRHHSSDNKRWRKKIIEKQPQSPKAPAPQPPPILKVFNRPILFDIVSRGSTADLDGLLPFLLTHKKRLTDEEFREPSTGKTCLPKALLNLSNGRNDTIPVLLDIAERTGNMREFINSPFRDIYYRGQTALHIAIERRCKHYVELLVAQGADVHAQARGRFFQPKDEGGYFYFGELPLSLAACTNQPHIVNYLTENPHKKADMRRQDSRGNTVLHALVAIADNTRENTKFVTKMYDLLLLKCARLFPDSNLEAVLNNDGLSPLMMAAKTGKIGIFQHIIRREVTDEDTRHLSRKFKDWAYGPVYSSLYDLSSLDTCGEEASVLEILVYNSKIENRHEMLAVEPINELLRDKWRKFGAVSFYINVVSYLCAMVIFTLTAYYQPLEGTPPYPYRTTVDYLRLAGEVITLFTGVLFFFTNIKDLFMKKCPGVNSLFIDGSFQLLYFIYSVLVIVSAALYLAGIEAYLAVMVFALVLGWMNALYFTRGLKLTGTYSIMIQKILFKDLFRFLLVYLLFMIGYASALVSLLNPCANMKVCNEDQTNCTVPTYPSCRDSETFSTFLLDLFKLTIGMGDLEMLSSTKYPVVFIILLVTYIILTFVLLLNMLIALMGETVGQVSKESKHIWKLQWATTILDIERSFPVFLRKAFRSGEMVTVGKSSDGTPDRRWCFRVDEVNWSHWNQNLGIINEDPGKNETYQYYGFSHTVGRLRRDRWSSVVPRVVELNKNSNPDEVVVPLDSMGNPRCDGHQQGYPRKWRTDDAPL

Row | Structure (SMILES) | IC50 [1] [nM] | IC50 [2] [nM]
1 | CC(C(=O)N1CCCc2nc(C3(c4ccccc4)CC3)[nH]c(=O)c2C1)c1cccc(C(F)(F)F)c1 (stereo not shown) [17-46] | < 50 | 
2 | CC(C)(C)c1cccc(C(O)C(=O)N2CCCc3nc(C4(c5ccccc5)CC4)[nH]c(=O)c3C2)c1 (stereo not shown) [17-47] | < 50 | 
3 | O=C(C(O)c1cccc(-c2cccc(F)c2)c1)N1CCCc2nc(C3(c4cccc(F)c4)CC3)[nH]c(=O)c2C1 (stereo not shown) [17-48] | < 50 | 
4 | CC(C)c1cccc(C2(c3nc4c(c(=O)[nH]3)CN(C(=O)C(O)c3cccc(-c5cccc(OC(F)(F)F)c5)c3)CCC4)CC2)c1 (stereo not shown) [17-49] | < 50 | 
5 | O=C(C(O)c1cccc(OCC(F)(F)F)c1)N1CCCc2nc(C3(c4cccc(Cl)c4)CC3)[nH]c(=O)c2C1 (stereo not shown) [17-50] | < 50 | 
6 | O=C(Cc1cccc(C(F)(F)F)c1)N1CCCc2nc(C3(c4ccccc4)CC3)[nH]c(=O)c2C1 [17-51] | < 50 | 
7 | O=C(C(O)c1cccc(Oc2ccccc2)c1)N1CCCc2nc(C3(c4cccc(F)c4)CC3)[nH]c(=O)c2C1 (stereo not shown) [17-52] | < 50 | 
8 | O=C(C(O)c1cccc(C2CC2)c1)N1CCCc2nc(C3(c4cccc(F)c4)CC3)[nH]c(=O)c2C1 (stereo not shown) [17-53] | < 50 | 
9 | COc1cccc(C2(c3nc4c(c(=O)[nH]3)CN(C(=O)[C@H](O)c3cccc(C(F)(F)F)c3)CCC4)CC2)c1 [17-54] | < 50 | 
10 | O=C(C(O)c1cccc(Br)c1)N1CCCc2nc(C3(c4ccccc4)CC3)[nH]c(=O)c2C1 (stereo not shown) [17-55] | < 50 | 
11 | Cc1cccc(C(O)C(=O)N2CCCc3nc(C4(c5ccccc5)CC4)[nH]c(=O)c3C2)c1F (stereo not shown) [17-56] | < 50 | 
12 | O=C([C@H](O)c1cccc(Cl)c1)N1CCCc2nc(C3(c4cccc(F)c4)CC3)[nH]c(=O)c2C1 [17-57] | < 50 | 
13 | O=C(C(O)c1cccc(C2CC2)c1)N1CCCc2nc(C3(c4ccccc4)CC3)[nH]c(=O)c2C1 (stereo not shown) [17-58] | < 50 | 
14 | CC(C)c1cccc(C(O)C(=O)N2CCCc3nc(C4(c5ccccc5)CC4)[nH]c(=O)c3C2)c1 (stereo not shown) [17-59] | < 50 | 
15 | O=C([C@H](O)c1cccc(F)c1F)N1CCCc2nc(C3(c4cccc(F)c4)CC3)[nH]c(=O)c2C1 [17-60] | < 50 | 
16 | O=C(C(O)c1cc(Cl)cc(Cl)c1)N1CCCc2nc(C3(c4ccccc4)CC3)[nH]c(=O)c2C1 (stereo not shown) [17-61] | < 50 | 
17 | O=C([C@H](O)c1cccc(C(F)(F)F)c1)N1CCCc2nc(C3(c4cccc(Oc5ccccc5)c4)CC3)[nH]c(=O)c2C1 [17-72] | < 50 | < 10
18 | O=C([C@H](O)c1cccc(Cl)c1)N1CCCc2nc(C3(c4cccc(Oc5ccccc5)c4)CC3)[nH]c(=O)c2C1 [17-73] | < 50 | < 3
19 | O=C(C(O)c1cccc(-c2cccc(C(F)(F)F)c2)c1)N1CCCc2c(nc(C3(c4ccccc4)CC3)[nH]c2=O)C1 (stereo not shown) [17-74] | < 50 | < 10
20 | O=C(C(O)c1cccc(Oc2cccc(C(F)(F)F)c2)c1)N1CCCc2nc(C3(c4ccccc4)CC3)[nH]c(=O)c2C1 (stereo not shown) [17-75] | < 50 | < 3
21 | O=C(C(O)c1cccc(OCc2ccccc2)c1)N1CCCc2nc(C3(c4ccccc4)CC3)[nH]c(=O)c2C1 (stereo not shown) [17-76] | < 50 | < 10

Row | Structure (SMILES) | IC50 [1] [nM] | IC50 [2] [nM]
22 | O=C([C@H](O)c1cccc(Br)c1)N1CCCc2nc(C3(c4ccccc4)CC3)[nH]c(=O)c2C1 [17-77] | < 50 | < 10
23 | O=C(Cc1ccccc1-c1ccccc1)N1CCCc2nc(C3(c4cccc(Cl)c4)CC3)[nH]c(=O)c2C1 [17-80] | < 50 | 
24 | O=C(C(O)c1cccc(Cl)c1F)N1CCCc2nc(C3(c4cccc(Oc5ccccc5)c4)CC3)[nH]c(=O)c2C1 (stereo not shown) [17-81] | < 50 | < 10
25 | O=C(Cc1ccccc1OCc1ccccc1)N1CCCc2nc(C3(c4cccc(Cl)c4)CC3)[nH]c(=O)c2C1 [17-82] | < 50 | < 10
26 | O=C(Cc1cccc(-c2ccccc2)c1)N1CCCc2nc(C3(c4cccc(Cl)c4)CC3)[nH]c(=O)c2C1 [17-84] | < 50 | < 10
27 | O=C(C(O)c1cccc(Oc2ccccc2)c1)N1CCCc2nc(C3(c4ccccc4)CC3)[nH]c(=O)c2C1 (stereo not shown) [17-85] | < 50 | 
28 | O=C([C@H](O)c1cccc(Cl)c1)N1CCCc2nc(C3(c4cccc(Br)c4)CC3)[nH]c(=O)c2C1 [17-87] | < 50 | < 10
29 | CC(C(=O)N1CCCc2nc(C3(c4cccc(Cl)c4)CC3)[nH]c(=O)c2C1)c1cccc(C(F)(F)F)c1 (stereo not shown) [17-88] | < 50 | < 10
30 | CC(C(=O)N1CCCc2nc(C3(c4cccc(F)c4)CC3)[nH]c(=O)c2C1)c1cccc(C(F)(F)F)c1 (stereo not shown) [17-89] | < 50 | < 10
31 | O=C([C@H](O)c1cccc(C(F)(F)F)c1)N1CCCc2nc(C3(c4cccc(OCc5ccccc5)c4)CC3)[nH]c(=O)c2C1 [17-90] | < 50 | < 10
32 | O=C([C@H](O)c1cccc(Cl)c1)N1CCCc2nc(C3(c4cccc(OCc5ccccc5)c4)CC3)[nH]c(=O)c2C1 [17-91] | < 50 | < 3
33 | O=C([C@@H](O)c1cccc(C(F)(F)F)c1)N1CCCc2nc(C3(c4cccc(Cl)c4)CC3)[nH]c(=O)c2C1 [17-93] | < 50 | 
34 | O=C([C@H](O)c1cccc(C(F)(F)F)c1)N1CCCc2nc(C3(c4cccc(-c5ccc6ncsc6c5)c4)CC3)[nH]c(=O)c2C1 [17-94] | < 50 | < 10
35 | O=C([C@H](O)c1cccc(C(F)(F)F)c1)N1CCCc2nc(C3(c4cccc(-c5cnc(-c6ccccc6)o5)c4)CC3)[nH]c(=O)c2C1 [17-95] | < 50 | < 10
36 | O=C([C@H](O)c1cccc(C(F)(F)F)c1)N1CCCc2nc(C3(c4cccc(-c5ccc6sccc6c5)c4)CC3)[nH]c(=O)c2C1 [17-96] | < 50 | < 10
37 | O=C([C@H](O)c1cccc(C(F)(F)F)c1)N1CCCc2nc(C3(c4cccc(-c5nc6ccccc6s5)c4)CC3)[nH]c(=O)c2C1 [17-97] | < 50 | < 10
38 | O=C([C@H](O)c1cccc(C(F)(F)F)c1)N1CCCc2nc(C3(c4cccc(-c5cnc(-c6ccccc6)s5)c4)CC3)[nH]c(=O)c2C1 [17-98] | < 50 | < 3
39 | O=C(Cc1cccc(-c2cccc(C(F)(F)F)c2)c1)N1CCCc2nc(C3(c4cccc(Cl)c4)CC3)[nH]c(=O)c2C1 [17-99] | < 50 | < 10
40 | O=C(Cc1cccc(-c2cccc(Cl)c2)c1)N1CCCc2nc(C3(c4cccc(Cl)c4)CC3)[nH]c(=O)c2C1 [17-100] | < 50 | < 3
41 | O=C(COc1ccc(-c2ccccc2)cc1)N1CCCc2nc(C3(c4cccc(Cl)c4)CC3)[nH]c(=O)c2C1 [17-102] | < 50 | 
42 | O=C(COc1cccc(-c2ccccc2)c1)N1CCCc2nc(C3(c4cccc(Cl)c4)CC3)[nH]c(=O)c2C1 [17-105] | < 50 | 

Row | Structure (SMILES) | IC50 [1] [nM] | IC50 [2] [nM]
43 | O=C(Cc1cccc(-c2cccc(C(F)(F)F)c2)c1)N1CCCc2c(nc(C3(c4ccccc4)CC3)[nH]c2=O)C1 [17-109] | < 50 | 
44 | O=C(Cc1cccc(C(F)(F)F)c1)N1CCCc2nc(C3(c4cccc(Cl)c4)CC3)[nH]c(=O)c2C1 [17-110] | < 50 | < 10
45 | O=C(Cc1cccc(C(F)(F)F)c1F)N1CCCc2nc(C3(c4cccc(Cl)c4)CC3)[nH]c(=O)c2C1 [17-111] | < 50 | < 10
46 | O=C(Cc1cccc(OC(F)(F)F)c1)N1CCCc2nc(C3(c4cccc(Cl)c4)CC3)[nH]c(=O)c2C1 [17-112] | < 50 | 
47 | O=C(Cc1cccc(SC(F)(F)F)c1)N1CCCc2nc(C3(c4cccc(Cl)c4)CC3)[nH]c(=O)c2C1 [17-113] | < 50 | < 10
48 | O=C(Cc1cccc(S(F)(F)(F)(F)F)c1)N1CCCc2nc(C3(c4cccc(Cl)c4)CC3)[nH]c(=O)c2C1 [17-114] | < 50 | < 10
49 | O=C(Cc1ccc2ccccc2c1)N1CCCc2nc(C3(c4cccc(Cl)c4)CC3)[nH]c(=O)c2C1 [17-115] | < 50 | 
50 | O=C(Cc1cccc(C2CC2)c1)N1CCCc2nc(C3(c4cccc(Cl)c4)CC3)[nH]c(=O)c2C1 [17-116] | < 50 | < 10
51 | O=C(/C=C/c1cccc(C(F)(F)F)c1)N1CCCc2nc(C3(c4cccc(Cl)c4)CC3)[nH]c(=O)c2C1 [17-117] | < 50 | < 10
52 | O=C(Cc1cccc(-c2coc3ccccc23)c1)N1CCCc2nc(C3(c4cccc(Cl)c4)CC3)[nH]c(=O)c2C1 [17-118] | < 50 | < 10
53 | N#Cc1cc(Cl)cc(-c2cccc(CC(=O)N3CCCc4nc(C5(c6cccc(Cl)c6)CC5)[nH]c(=O)c4C3)c2)c1 [17-119] | < 50 | < 3
54 | O=C(Cc1cccc2ccccc12)N1CCCc2nc(C3(c4cccc(Cl)c4)CC3)[nH]c(=O)c2C1 [17-120] | < 50 | < 10
55 | O=C(CCc1cccc(C(F)(F)F)c1)N1CCCc2nc(C3(c4cccc(Cl)c4)CC3)[nH]c(=O)c2C1 [17-121] | < 50 | 
56 | O=C(Cc1cccc(OCc2ccccc2)c1)N1CCCc2nc(C3(c4cccc(Cl)c4)CC3)[nH]c(=O)c2C1 [17-122] | < 50 | < 10
57 | O=C(Cc1cccc(-c2cccc(Cl)c2)c1)N1CCCc2nc(C3(c4cccc(-c5csc6ccccc56)c4)CC3)[nH]c(=O)c2C1 [17-123] | < 50 | < 10
58 | O=C([C@H](O)c1cccc(Br)c1)N1CCCc2nc(C3(c4cccc(-c5csc6ccccc56)c4)CC3)[nH]c(=O)c2C1 [17-124] | < 50 | < 10
59 | O=C(Cc1cccc(-c2cccc(C(F)(F)F)c2)c1)N1CCCc2nc(C3(c4cccc(-c5csc6ccccc56)c4)CC3)[nH]c(=O)c2C1 [17-125] | < 50 | < 10
60 | N#Cc1ccc(-c2cccc(CC(=O)N3CCCc4nc(C5(c6cccc(Cl)c6)CC5)[nH]c(=O)c4C3)c2)cc1 [17-126] | < 50 | < 10
61 | CC(C)(C)c1ccc(-c2cccc(CC(=O)N3CCCc4nc(C5(c6cccc(Cl)c6)CC5)[nH]c(=O)c4C3)c2)cc1 [17-127] | < 50 | < 10
